Experiments:
Experiment in all cases: relative viability (nuclei count vs DMSO), 5 days (fraction); higher = more cells survive
RU-SKI 43 + Bortezomib = compound: CC[C@@H](C)CNCC(=O)N1CCC2=C([C@@H]1COC3=CC=CC(=C3)C)C=CS2 [RU-SKI 43] + CC(C)C[C@H](NC(=O)[C@H](Cc1ccccc1)NC(=O)c1cnccn1)B(O)O [Bortezomib] (partner 0.002 µM)
Outline: (§1)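 Medians of duplicate plates are given as relative viability. That measure is the nuclei count in treated wells divided by the count in vehicle wells. Counts were taken on 4× images of lung cancer cell lines in 1536-well plates, 5 days after pin-tool dosing the day after seeding with one drug alone or a fixed anchor-drug dose plus five library-drug doses (not always all listed) in √10 steps.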

RU-SKI 43 + Pictilisib = compound: CC[C@@H](C)CNCC(=O)N1CCC2=C([C@@H]1COC3=CC=CC(=C3)C)C=CS2 [RU-SKI 43] + CS(=O)(=O)N1CCN(Cc2cc3nc(-c4cccc5[nH]ncc45)nc(N4CCOCC4)c3s2)CC1 [Pictilisib] (partner 1 µM)
Outline: as §1

RU-SKI 43 + Luminespib = compound: CC[C@@H](C)CNCC(=O)N1CCC2=C([C@@H]1COC3=CC=CC(=C3)C)C=CS2 [RU-SKI 43] + CCNC(=O)c1noc(-c2cc(C(C)C)c(O)cc2O)c1-c1ccc(CN2CCOCC2)cc1 [Luminespib] (partner 0.01 µM)
Outline: as §1

MK-8033 + Trametinib = compound: Cn1cc(-c2cnc3ccc4ccc(CS(=O)(=O)NCc5ccccn5)cc4c(=O)c3c2)cn1 [MK-8033] + CC(=O)Nc1cccc(-n2c(=O)n(C3CC3)c(=O)c3c(Nc4ccc(I)cc4F)n(C)c(=O)c(C)c32)c1 [Trametinib] (partner 0.02 µM)
Outline: as §1

| Cell Line | relative viability (RU-SKI 43 + Bortezomib; first compound 0.1 µM) | relative viability (RU-SKI 43 + Bortezomib; first compound 0.3162 µM) | relative viability (RU-SKI 43 + Bortezomib; first compound 1 µM) | relative viability (RU-SKI 43 + Bortezomib; first compound 3.162 µM) | relative viability (RU-SKI 43 + Bortezomib; first compound 10 µM) | relative viability (RU-SKI 43 + Pictilisib; first compound 0.1 µM) | relative viability (RU-SKI 43 + Pictilisib; first compound 0.3162 µM) | relative viability (RU-SKI 43 + Pictilisib; first compound 1 µM) | relative viability (RU-SKI 43 + Pictilisib; first compound 3.162 µM) | relative viability (RU-SKI 43 + Pictilisib; first compound 10 µM) | relative viability (RU-SKI 43 + Luminespib; first compound 0.1 µM) | relative viability (RU-SKI 43 + Luminespib; first compound 0.3162 µM) | relative viability (RU-SKI 43 + Luminespib; first compound 1 µM) | relative viability (RU-SKI 43 + Luminespib; first compound 3.162 µM) | relative viability (RU-SKI 43 + Luminespib; first compound 10 µM) | relative viability (MK-8033 + Trametinib; first compound 0.02 µM) | relative viability (MK-8033 + Trametinib; first compound 0.06325 µM) | relative viability (MK-8033 + Trametinib; first compound 0.2 µM) | relative viability (MK-8033 + Trametinib; first compound 0.6325 µM) | relative viability (MK-8033 + Trametinib; first compound 2 µM) |
| --- | --- | --- | --- | --- | --- | --- | --- | --- | --- | --- | --- | --- | --- | --- | --- | --- | --- | --- | --- | --- |
| NCI-H1993 | 1.04 | 1.01 | 1.15 | 1.1 | 0.756 | 0.718 | 0.597 | 0.769 | 0.964 | 0.719 | 0.714 | 0.813 | 0.982 | 1.02 | 0.825 | 0.55 | 0.506 | 0.427 | 0.469 | 0.456 |
| NCI-H2228 | 1.19 | 1.26 | 0.937 | 1.98 | 0.941 | 0.306 | 0.375 | 0.42 | 0.51 | 0.285 | 0.178 | 0.15 | 0.177 | 0.149 | 0.199 | 0.278 | 0.403 | 0.435 | 0.341 | 0.582 |
| LC-2-ad | 1.03 | 1.21 | 1.06 | 1.1 | 0.867 | 0.404 | 0.601 | 0.562 | 0.438 | 0.358 | 0.987 | 1.1 | 1 | 1.04 | 0.956 | 0.895 | 0.888 | 0.885 | 0.916 | 0.898 |
| NCI-H596 | 1.32 | 0.93 | 1.34 | 0.936 | 1.1 | 0.379 | 0.43 | 0.42 | 0.414 | 0.57 | 0.89 | 1.05 | 1.06 | 1.12 | 0.744 | 0.683 | 0.916 | 0.733 | 0.837 | 0.877 |
| LCLC-97TM1 | 0.852 | 0.827 | 1.79 | 0.684 | 0.645 | 0.191 |  | 0.213 | 0.162 | 0.188 | 0.902 | 0.927 | 0.876 | 0.898 | 0.85 | 0.181 | 0.19 |  | 0.207 | 0.209 |
| SK-LU-1 | 1.37 | 1.18 | 1.39 | 1.15 | 1.24 | 0.556 | 0.578 | 0.634 | 0.678 | 0.554 | 0.225 | 0.215 | 0.202 | 0.227 | 0.215 | 0.484 | 0.482 | 0.437 | 0.445 | 0.468 |
| COR-L23 | 1.18 | 0.714 | 1.12 | 1.14 | 1.03 | 0.754 | 0.756 | 0.897 | 0.986 | 0.738 | 0.547 | 0.573 | 0.93 | 0.869 | 0.614 | 0.607 | 0.576 | 0.602 | 0.572 | 0.523 |
| NCI-H2126 | 1.15 | 1.25 | 1.23 | 1.12 | 1.08 | 0.491 | 0.407 | 0.549 | 0.492 | 0.507 | 0.837 | 1.09 | 1.11 | 0.959 | 0.891 | 0.542 | 0.554 | 0.525 | 0.585 | 0.569 |
| EPLC-272H | 0.905 | 1.08 | 1.09 |  | 1.09 | 0.316 | 0.315 | 0.404 |  | 0.291 | 0.467 | 0.182 | 0.73 | 0.423 | 0.278 | 0.247 | 0.263 | 0.29 | 0.275 | 0.301 |
| NCI-H2009 | 1.05 | 1.02 | 1.01 | 1.12 | 0.968 | 0.788 | 1.06 | 0.9 | 0.883 | 0.773 | 0.981 | 1.12 | 0.984 | 1.02 | 1.03 | 0.282 | 0.255 | 0.215 | 0.291 | 0.238 |
| NCI-H2347 | 0.951 | 1.16 | 1.01 | 0.976 | 0.994 | 0.589 | 1.18 | 0.595 | 0.72 | 0.574 | 0.443 | 0.717 | 0.639 | 0.357 | 0.35 | 0.326 | 0.344 | 0.295 | 0.287 | 0.281 |
| LU99A | 1.08 | 1.3 | 1.15 | 1.23 | 1.03 | 0.312 | 0.304 | 0.321 | 0.333 | 0.292 | 0.195 | 0.24 | 0.211 | 0.259 | 0.192 | 0.582 | 0.48 | 0.492 | 0.582 | 0.503 |
| NCI-H1915 | 1.05 | 1.39 | 1.1 | 0.959 | 1.02 | 1.02 | 0.954 | 1.03 | 0.961 | 0.927 | 0.837 | 1.44 | 1.02 | 0.869 | 0.895 | 0.276 | 0.319 | 0.274 | 0.289 | 0.306 |
